According to US9980943B2, “Methods of treating muscular dystrophy” (BOARD OF REGENTS OF THE NEVADA SYSTEM OF HIGHER EDUCATION, …, priority 2013, dated 2018):

What was measured:
Assay type in all cases: cell-based, mouse
[1] = system: β-galactosidase in CMV-LacZ C2C12 myoblasts; assay: CMV-LacZ secondary screen in C2C12 myoblasts (β-Gal stabilizing assay); conditions: CMV-LacZ C2C12 myoblasts
Procedure, shortened: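 Dose-response runs at 0.5–40 μM (0.5, 1, 5, 10, 20, 40 μM; N=2 per point) used a clonal C2C12 line carrying CMV-LacZ. Cells were assayed as myoblasts or as differentiated myotubes, and β-galactosidase levels were read with the FDG fluorogenic substrate.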

[2] = system: α7 integrin (LacZ reporter in α7βgal+/− myoblasts); assay: Myoblast α7+/LacZ integrin FDG assay (Burkin assay in myoblasts, 96-well); conditions: α7+/LacZ myoblasts, 96-well
[3] = system: β-galactosidase in CMV-LacZ C2C12 myotubes; assay: CMV-LacZ secondary screen in C2C12 myotubes (β-Gal stabilizing assay); conditions: C2C12 CMV-LacZ myotubes, fold relative to DMSO
Procedure, shortened: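 First, C2C12 myoblasts were transfected with a linearized CMV-LACZ vector and clonal lines selected by FDG β-gal assay. Then cells were exposed to compounds at 0.5, 1, 5, 10, 20 and 40 μM in 96-well format, two replicates each, and β-gal measured.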

[4] = system: α7 integrin (LacZ reporter in α7+/LacZ myotubes); assay: Myotube α7 integrin FDG assay (Burkin assay in myotubes, 96-well); conditions: myotubes

| SMILES | CMV-LACZ in Myoblasts (β-galactosidase activity relative to DMSO) ([1]; 0.5 uM) | CMV-LACZ in Myoblasts (β-galactosidase activity relative to DMSO) ([1]; 1 uM) | CMV-LACZ in Myoblasts (β-galactosidase activity relative to DMSO) ([1]; 5 uM) | CMV-LACZ in Myoblasts (β-galactosidase activity relative to DMSO) ([1]; 10 uM) | CMV-LACZ in Myoblasts (β-galactosidase activity relative to DMSO) ([1]; 20 uM) | CMV-LACZ in Myoblasts (β-galactosidase activity relative to DMSO) ([1]; 40 uM) | Burkin Assay in Myoblasts, signal relative to DMSO ([2]; 0.5 uM) | Burkin Assay in Myoblasts, signal relative to DMSO ([2]; 1 uM) | Burkin Assay in Myoblasts, signal relative to DMSO ([2]; 5 uM) | Burkin Assay in Myoblasts, signal relative to DMSO ([2]; 10 uM) | Burkin Assay in Myoblasts, signal relative to DMSO ([2]; 20 uM) | Burkin Assay in Myoblasts, signal relative to DMSO ([2]; 40 uM) | CMV-LACZ in Myotubes, signal relative to DMSO ([3]; 0.5 uM) | CMV-LACZ in Myotubes, signal relative to DMSO ([3]; 1 uM) | CMV-LACZ in Myotubes, signal relative to DMSO ([3]; 5 uM) | CMV-LACZ in Myotubes, signal relative to DMSO ([3]; 10 uM) | CMV-LACZ in Myotubes, signal relative to DMSO ([3]; 20 uM) | CMV-LACZ in Myotubes, signal relative to DMSO ([3]; 40 uM) | Burkin Assay in Myotubes, α7 integrin LacZ reporter signal relative to DMSO ([4]; 0.5 uM) | Burkin Assay in Myotubes, α7 integrin LacZ reporter signal relative to DMSO ([4]; 1 uM) | other results |
| --- | --- | --- | --- | --- | --- | --- | --- | --- | --- | --- | --- | --- | --- | --- | --- | --- | --- | --- | --- | --- | --- |
| O=C1CCC(C(=O)N2CCSCC2)CN1Cc1ccc(Cl)cc1 (stereo not drawn) [MLS001090787-01] | 0.9196 | 0.9754 | 0.9700 | 0.8594 | 0.7533 | 0.5907 | 1.142 | 0.9734 | 1.263 | 1.46 | 1.265 | 1.222 | 1.0009 | 0.9055 | 1.0126 | 1.1178 | 0.8990 | 0.9450 | 1.054 | 1.168 | Burkin Assay in Myotubes, α7 integrin LacZ reporter signal relative to DMSO ([4]; 5 uM): 1.083; Burkin Assay in Myotubes, α7 integrin LacZ reporter signal relative to DMSO ([4]; 10 uM): 1.195; Burkin Assay in Myotubes, α7 integrin LacZ reporter signal relative to DMSO ([4]; 20 uM): 1.209; Burkin Assay in Myotubes, α7 integrin LacZ reporter signal relative to DMSO ([4]; 40 uM): 1.5544 |
| COC(=O)c1cc(S(=O)(=O)NCC2CCN(Cc3ccc(Cl)cc3)CC2)cn1C [MLS001095033-01] | 0.9488 | 0.9179 | 0.9043 | 1.0269 | 0.9359 | 0.9811 | 1.281 | 1.186 | 0.9632 | 0.9614 | 1.125 | 1.0618 | 1.2895 | 1.0867 | 1.0230 | 1.0031 | 1.0326 | 1.0358 | 0.9959 | 0.9488 | Burkin Assay in Myotubes, α7 integrin LacZ reporter signal relative to DMSO ([4]; 5 uM): 0.944; Burkin Assay in Myotubes, α7 integrin LacZ reporter signal relative to DMSO ([4]; 10 uM): 0.9298; Burkin Assay in Myotubes, α7 integrin LacZ reporter signal relative to DMSO ([4]; 20 uM): 0.8938; Burkin Assay in Myotubes, α7 integrin LacZ reporter signal relative to DMSO ([4]; 40 uM): 0.9158 |
| COc1ccc(OC)c(S(=O)(=O)Nc2c(NC3CCCCC3)c3ccccc3oc2=O)c1 [MLS001095705-01] | 1.2060 | 1.2293 | 0.6476 | 0.7229 | 1.1400 | 1.1723 | 0.7873 | 0.8788 | 1.295 | 0.969 | 0.7917 | 0.7284 | 0.9486 | 0.9933 | 1.1898 | 1.3164 | 1.2020 | 1.0800 | 0.9916 | 0.9463 | Burkin Assay in Myotubes, α7 integrin LacZ reporter signal relative to DMSO ([4]; 5 uM): 1.073; Burkin Assay in Myotubes, α7 integrin LacZ reporter signal relative to DMSO ([4]; 10 uM): 0.8798; Burkin Assay in Myotubes, α7 integrin LacZ reporter signal relative to DMSO ([4]; 20 uM): 0.9411; Burkin Assay in Myotubes, α7 integrin LacZ reporter signal relative to DMSO ([4]; 40 uM): 0.7937 |
